The values below come from patent US20250332249A1, “CYTOM[…] CELL EPITOPES AND USES THEREOF” (LA JOLLA INSTITUTE FOR IMMUNOLOGY, priority 2021, published 2025).

This assay has as its system PBMCs from HCMV seropositive subjects. The assay is described as follows: ex vivo IFN-γ Fluorospot assay. Format: cell-based, human. Particulars: 19 HCMV seropositive subjects, individual peptide 10 ug/ml, 20 hr; for No. of subjects responding: IFN-γ; for Magnitude of response: IFN-γ spots (FIG. 1: SFC/10^6 PBMC; no unit in table). As for the experimental part:
To define the targets of HCMV-specific T cell epitopes recognized in healthy adults, the inventors screened PBMCs of 19 subjects, 10 males and 9 females, recruited from San Diego blood bank (SDBB). The HCMV seropositivity of all the subjects was confirmed by IgG ELISA (FIG. 6A). A total of 2593 HCMV peptides covering a total of 563 ORFs (1) were tested. However, as many of these predicted ORFs overlapped 100% with others, as they were internal to longer ORFs, these 563 contained 359 completely unique ORFs composed of ˜150“canonical” ORFs, and an additional ˜200 identified by ribosomal RNA profiling (1). These peptides corresponded to predicted dominant epitopes, based on a bioinformatic method that predicts promiscuous binding to HLA class II molecules (40). Each of the ORFs above was covered by multiple predicted epitopes (with a minimum of at least 2), with the exception of very small ORFs (less than 15-20 amino acid residues), in which case at least one peptide was synthetized. The 2593 peptides were arranged in 89 pools of 28-30 15-mer peptides. PBMC reactivity of each of the 89 pools was assayed directly ex vivo using an IFN-γ Fluorospot assay.
For the initial CMV ORF screen, the responses of 19 CMV-seropositive subjects were evaluated. PBMCs were stimulated with 89 pools covering 563 ORFs of HCMV. Each pool comprised of 28-30 15-mer peptides overlapping by 10 residues. PBMCs that were found reactive to a pool were further tested against individual peptides contained in the pool using IFN-γ Fluorospot assay.
PBMC were thawed, washed and counted for viability using the trypan blue exclusion method. 200,000 cells were plated in triplicates and stimulated with pools (2 ug/ml) or peptides (10 ug/ml), PHA (10 ug/ml) or medium containing equivalent amount of DMSO in 96-well plates (Immubilion-P, Millipore) previously coated with anti IFN-γ antibody (1-DIK, Mabtech, Stockholm, Sweden). After 20 hr incubation at 37° C., cells were discarded and wells were washed six times with PBS/0.05% Tween 20 using an automated plate washer and further incubated with IFN-γ antibody (7-B6-1-FS-BAM) for 2 hrs at room temperature. After incubation, wells were washed and incubated with fluorophore conjugated anti-BAM-490 antibody for 1 hr at room temperature. Finally, the plates were washed and incubated with fluorescence enhancer for 15 min, blotted dry and fluorescent spots were counted by computer assisted image analysis (IRIS Fluorospot reader, Mabtech, Sweden).
Each pool or peptide was considered positive compared to the background that had equivalent amount of DMSO based on the following criteria: (i) 20 or more spot forming cells (SFC) per 10^6 PBMC after background subtraction, (ii) the stimulation index greater than 2, and (iii) p<0.05 by student's t test or Poisson distribution test

Where no end group is shown, it is not given here.

As to 1 (NGIRWQYQELQYLVE) [compound 1], the “No. of subjects responding” value was 2 and the Magnitude of response was determined as 222.

For the substance 2 (RYNALTVRSRDSLLL) [compound 2], the “No. of subjects responding” value was determined as 2 and the Magnitude of response worked out at 204.

Take 3 (RVRTWFVQRTTLWRR) [compound 3]: the “No. of subjects responding” value is 1 and the Magnitude of response was found to be 60.

For the substance “4 (GLWVSSYLVRRPMTI; ends and bridges not checked) [compound 4]”, the “No. of subjects responding” value came out at 2 and the Magnitude of response was 890.

Consider “5 (QGATYQLSIVRQAMQ; ends and bridges not checked) [compound 5]”, for which the “No. of subjects responding” value worked out at 1 and the Magnitude of response is recorded as 650.

For the substance 6 (GAGLRQLRQQLTVRW) [compound 6], the “No. of subjects responding” value is listed as 1 and the Magnitude of response was determined as 20.

Consider 7 (MRTVPVTKLYTSRMV) [compound 7], for which the “No. of subjects responding” value is listed as 1 and the Magnitude of response is 5677.

Take 8 (AITLFFFLLALRIPQ) [compound 8]: the “No. of subjects responding” value came out at 1 and the Magnitude of response was found to be 207.

Regarding 9 (ALFTHFVGRPRHCRL) [compound 9], the “No. of subjects responding” value is on record as 1 and the Magnitude of response amounted to 57.

As for 10 (MLGIRAMLVMLDYYW) [compound 10], the “No. of subjects responding” value stood at 1 and the Magnitude of response is 350.

Regarding 11 (PSVRMDFRARRPLRR) [compound 11], the “No. of subjects responding” value was found to be 3 and the Magnitude of response is given as 1740.

Consider “12 (ARRLWILSLLAVTLT; ends and bridges not checked) [compound 12]”, for which the “No. of subjects responding” value was 1 and the Magnitude of response was 100.

As to “13 (LLAVTLTVALAAPSQ; ends and bridges not checked) [compound 13]”, the “No. of subjects responding” value stood at 2 and the Magnitude of response is reported as 6420.

Take 14 (KDRCLVIRRRWRLVR) [compound 14]: the “No. of subjects responding” value came to 1 and the Magnitude of response amounted to 60.

As for 15 (FVAESITEFLNIGLR) [compound 15], the “No. of subjects responding” value came out at 1 and the Magnitude of response came out at 530.

Turning to 16 (HENGIYYGTRSMRKL) [compound 16], the “No. of subjects responding” value turned out to be 1 and the Magnitude of response is 827.

For 17 (FCRRFFFPDRPDFFL) [compound 17], the “No. of subjects responding” value is on record as 1 and the Magnitude of response worked out at 107.

Regarding 18 (AEDSVFTSTRARSAT) [compound 18], the “No. of subjects responding” value is 1 and the Magnitude of response is given as 490.

In the case of 19 (KFVLQDFDVQHLRRL) [compound 19], the “No. of subjects responding” value stood at 1 and the Magnitude of response was found to be 40.

Take 20 (IINYYYVAQKKARHM) [compound 20]: the “No. of subjects responding” value is 1 and the Magnitude of response is 163.

For 21 (ALALHFLTSRKGVTD) [compound 21], the “No. of subjects responding” value stood at 1 and the Magnitude of response is given as 40.

As for 23 (DFLRVVRQQDAFICT) [compound 23], the “No. of subjects responding” value worked out at 2 and the Magnitude of response amounted to 174.

With 24 (ICVARLQAQPSSRHI) [compound 24], the “No. of subjects responding” value was found to be 1 and the Magnitude of response is 37.

Turning to 25 (GVSSVTLLKIFSQVP) [compound 25], the “No. of subjects responding” value is 2 and the Magnitude of response is on record as 220.

In the case of 26 (VLATLAAVRTRRRSV) [compound 26], the “No. of subjects responding” value is on record as 2 and the Magnitude of response worked out at 340.

With 27 (EAYVRINAGQVLPVV) [compound 27], the “No. of subjects responding” value came to 1 and the Magnitude of response came to 1853.

Consider 28 (LHCMRYLTSSLVKRY) [compound 28], for which the “No. of subjects responding” value is on record as 1 and the Magnitude of response was 150.

As to 29 (KRYFRPLLRAWSLGL) [compound 29], the “No. of subjects responding” value is listed as 4 and the Magnitude of response came to 1388.

On to 30 (HLLRNIKTAFGMRVL) [compound 30], for which the “No. of subjects responding” value was determined as 2 and the Magnitude of response was found to be 1093.

Regarding 31 (ARNLMEFARVGLRAV) [compound 31], the “No. of subjects responding” value came to 1 and the Magnitude of response came out at 1450.

Consider 32 (TGLVLLLLLLVVRLL) [compound 32], for which the “No. of subjects responding” value stood at 1 and the Magnitude of response worked out at 1440.

As for 33 (MLFRPTISNSIPRCR) [compound 33], the “No. of subjects responding” value worked out at 1 and the Magnitude of response worked out at 47.

Consider “34 (LRIIRLLRASIRHEY; ends and bridges not checked) [compound 34]”, for which the “No. of subjects responding” value is on record as 1 and the Magnitude of response is 810.

As for “35 (RAHIQKFERLHVRRF; ends and bridges not checked) [compound 35]”, the “No. of subjects responding” value worked out at 1 and the Magnitude of response is given as 2523.

On to “36 (SLQFIGLQRRDVVAL; ends and bridges not checked) [compound 36]”, for which the “No. of subjects responding” value came out at 1 and the Magnitude of response amounted to 83.

As for “37 (RDVVALVNFLRHLTQ; ends and bridges not checked) [compound 37]”, the “No. of subjects responding” value is listed as 1 and the Magnitude of response is recorded as 1710.

As to “38 (RRTVLFNELMLWLGY; ends and bridges not checked) [compound 38]”, the “No. of subjects responding” value is listed as 1 and the Magnitude of response is 180.

Regarding “39 (VNAVNKLVYTGRLIM; ends and bridges not checked) [compound 39]”, the “No. of subjects responding” value is 1 and the Magnitude of response is recorded as 340.

Take “40 (KELRMCLSFDSNYCR; ends and bridges not checked; cysteine pairing not given here) [compound 40]”: the “No. of subjects responding” value is recorded as 1 and the Magnitude of response was 127.

For “41 (GMKTVAFDLSSPQKS; ends and bridges not checked) [compound 41]”, the “No. of subjects responding” value was 1 and the Magnitude of response amounted to 193.

With “46 (SYRSTYIILLLTWFA; ends and bridges not checked) [compound 46]”, the “No. of subjects responding” value was found to be 3 and the Magnitude of response was determined as 3990.

Turning to “47 (LTLRRTIGTLSRLVP; ends and bridges not checked) [compound 47]”, the “No. of subjects responding” value is 1 and the Magnitude of response came to 163.

Take “48 (RRRMVSVTLFSPYSV; ends and bridges not checked) [compound 48]”: the “No. of subjects responding” value came to 1 and the Magnitude of response worked out at 53.

Consider “49 (GRLMEVRQRNGRLRR; ends and bridges not checked) [compound 49]”, for which the “No. of subjects responding” value amounted to 1 and the Magnitude of response turned out to be 30.

For “50 (WPERCFIQLRSRSAL; ends and bridges not checked) [compound 50]”, the “No. of subjects responding” value is recorded as 3 and the Magnitude of response is 313.

With “51 (GPGFMRYQLIVLIGQ; ends and bridges not checked) [compound 51]”, the “No. of subjects responding” value is 1 and the Magnitude of response came to 3167.

Take 52 (IQTMELMIRTVPRIT) [compound 52]: the “No. of subjects responding” value is reported as 2 and the Magnitude of response is listed as 384.

As for 53 (EFLVRQYVLVDTFGV) [compound 53], the “No. of subjects responding” value came out at 2 and the Magnitude of response was found to be 104.

Consider 54 (RREAIVRLEKTPTCQ) [compound 54], for which the “No. of subjects responding” value is given as 2 and the Magnitude of response came to 407.

In the case of 55 (RRRFKVCDVGRRHII) [compound 55], the “No. of subjects responding” value is recorded as 1 and the Magnitude of response is 63.
